These results are taken from publication PMC3391414 (Journal of Agricultural and Food Chemistry, 2011).

Entries after “also recorded” stand apart in the source; their conditions may differ. Where two headings read alike, the source gives them in different places.

One data set deals with T1, UGT1A1 (Homo sapiens, UniProt P22309).
T1 sequence (P22309 26-533): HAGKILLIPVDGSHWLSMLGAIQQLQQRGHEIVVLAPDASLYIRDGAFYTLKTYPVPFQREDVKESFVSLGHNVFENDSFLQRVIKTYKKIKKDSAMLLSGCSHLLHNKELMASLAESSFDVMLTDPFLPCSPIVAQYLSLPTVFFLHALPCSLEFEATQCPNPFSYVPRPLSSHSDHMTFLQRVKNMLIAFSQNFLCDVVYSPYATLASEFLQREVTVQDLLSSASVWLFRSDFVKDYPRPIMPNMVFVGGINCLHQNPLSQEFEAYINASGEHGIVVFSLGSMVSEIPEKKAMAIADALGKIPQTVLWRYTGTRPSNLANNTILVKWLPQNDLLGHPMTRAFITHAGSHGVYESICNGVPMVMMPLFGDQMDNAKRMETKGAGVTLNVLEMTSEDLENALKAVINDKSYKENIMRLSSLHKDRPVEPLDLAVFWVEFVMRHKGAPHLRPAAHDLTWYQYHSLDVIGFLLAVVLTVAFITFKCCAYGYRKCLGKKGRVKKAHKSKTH
Kind of data set: Glucuronidation by recombinant human UGT1A1.

Data set [1] addresses T2, UGT1A10 (Homo sapiens, UniProt Q9HAW8).
T2 sequence (Q9HAW8 26-530): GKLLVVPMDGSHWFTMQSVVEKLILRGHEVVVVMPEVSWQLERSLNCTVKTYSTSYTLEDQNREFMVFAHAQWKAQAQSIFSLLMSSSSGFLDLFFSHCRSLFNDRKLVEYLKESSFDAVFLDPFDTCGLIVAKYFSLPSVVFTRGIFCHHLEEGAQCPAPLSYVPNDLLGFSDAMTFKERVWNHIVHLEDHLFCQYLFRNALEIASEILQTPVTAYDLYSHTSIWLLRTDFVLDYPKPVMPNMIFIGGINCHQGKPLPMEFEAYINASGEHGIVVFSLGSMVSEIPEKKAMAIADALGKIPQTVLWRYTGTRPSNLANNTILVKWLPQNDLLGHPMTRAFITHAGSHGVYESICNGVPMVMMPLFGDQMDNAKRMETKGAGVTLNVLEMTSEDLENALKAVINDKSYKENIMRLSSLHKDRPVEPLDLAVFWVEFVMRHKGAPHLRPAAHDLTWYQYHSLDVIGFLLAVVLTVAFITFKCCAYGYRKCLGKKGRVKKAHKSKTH
The experiment in a line: Glucuronidation by recombinant human UGT1A10. Particulars: UGT1A10, substrate 10 μM.

Data set [2] deals with T2, UGT1A10. Particulars: 10 μM, pH 7.4.

Consider `O=c1c(O)c(-c2ccc(O)cc2)oc2cc(O)cc(O)c12` [5,7,4'THFnol, 3,5,7,4’-tetrahydroxyflavone], for which the “Degree of regiospecificity (major glucuronide in bracket)” value on UGT1A1 (UGT1A1, substrate 2.5 μM) was “Weak (7-O)”; at UGT1A1 (UGT1A1, substrate 2.5 μM, listed as 5,7,4’THFnol) it was “weakly preferred the glucuronidation of 7-O position”; on UGT1A1 (UGT1A1, substrate 10 μM), “No (3-O, 7-O)”; on UGT1A1 (UGT1A1, substrate 10 μM, listed as 5,7,4’THFnol), “no regiospecific preference between 3-O and 7-O; also recorded: no regiospecificity”. Also, the Hydroxyl positions glucuronidated result is “glucuronidated 3-O, 7-O and 4’-O” on UGT1A1 (UGT1A1, substrate 10 μM); “glucuronidated 3-O, 7-O and 4’-O” on UGT1A10 [1]. In addition, at UGT1A1 (UGT1A1, substrate 35 μM), the “Degree of regiospecificity (3-O vs 7-O)” value is “no regiospecificity”.
As to `O=c1cc(-c2ccccc2)oc2cc(O)cc(O)c12` [5,7DHF, 5,7-dihydroxyflavone], at UGT1A10 [2], the Hydroxyl positions glucuronidated result was “glucuronidated both 7-O and 5-O positions”.
